Measurements from patent US20230331674A1 (priority 2020, published 2023).
“And” between values parts separate entries of the source, which are not always exact repeats. Equal values may be shown once.

What was measured:
Format in all cases: in vivo, dog
[1] = test system: dogs with canine cognitive dysfunction; assay: Cognitive tests (food searching test FST and problem solving test PST) in dogs with cognitive dysfunction; set-up: Problem solving test scores (sum of FST and PST test), individual patient: scale not given here; conditions: for Problem solving score (sum of FST and PST), group mean: treated dogs; for Problem solving test scores (sum of FST and PST test), individual patient: treated group, one line per patient 1-7, Hydrochloride
Description: (§1) The study design was following the guidelines of the European Directive 2010/63/EU. Before starting the experimental therapy with their pets, each owner was required to sign an informed consent form. According to The Administration of the Republic of Slovenian for Food Safety, Veterinary and Plant Protection, no ethical permission was needed as the study was performed on clinical patients with the owners' consents. In total, seventeen dogs showing signs of cognitive dysfunction were included in the study. […] Upon enrollment, dogs were physically and neurologically examined, blood and urine analysis were performed. Additionally, a questionnaire based on a modified CADES scale score and two clinical tests (FST and problem PST) for assessing their cognitive function were performed. Dogs were randomly allocated to one of the following two groups: Control group (n=7) without treatment and the treatment group (n=10). Questionnaire and cognitive tests were performed every 2 months on all the dogs included in the study.
FST and PST were performed on each dog included in the study. The design of these tests was based on previously published tests for canine cognitive dysfunction (González-Martinez A. et al. Vet. J. 2013, 198, 176-181). The cognitive tests were evaluated by the same veterinarian. Dogs were tested in the morning after at least 10 hours of the fasting period.
This test was based on testing the dog's ability to find hidden food. The dog was seated in the middle of the room while being on the leash. […] While maintaining visual contact with the dog and still communicating with the dog, showing the food, the veterinarian than moved backward and placed the food in the corner of the room. The veterinarian than stared at the food and pointed to it with his hand for 2-3 s to increase the dog's visual processing. The owner was then asked to leave the room with the dog and wait outside for 15 s. After returning to the room, the dog was placed into the center of the room unleashed and allowed to freely explore the room for 1 minute. No verbal or other clues were allowed. The procedure was repeated twice. […] The FST total score was the average of both runs.
In this test, the ability of the dog to obtain the food by manipulating an object was assessed. […] After that, the food was placed on the floor in front of the dog and covered with a transparent plastic box that had been turned upside down. The dog was given 2 minutes to find a way to remove the box and get the food. […]
Results are presented as mean+SD. […] CADES score and results from behavioral tests were analyzed by repeated measures ANOVA with treatment as the independent variable and clinical test (before the treatment, 3 months, and 6 months after the treatment) as within factor. […]

[2] = test system: dogs with canine cognitive dysfunction; assay: CADES score questionnaire in dogs with cognitive dysfunction; conditions: for Average CADES score: treated dogs
Text: Thirty-one dogs older than 10 years were screened for the study. Of these, 14 were excluded from the study because of different abnormal findings observed during the initial examination, including 3 dogs with brain tumor confirmed with the computed tomography (CT); 2 dogs with markedly elevated alanine aminotransferase (ALT) and serum alkaline phosphatase (ALP); 3 dogs with renal disease; 3 dogs with marked hearing and visual deficit; 2 dogs with both renal disease and moderately elevated ALT and ALP and 1 dog with eclampsia.
After the owner's consent, dogs were subjected to physical and neurological examination including body weight and body condition score, blood results for complete blood count (CBC), clinical chemistry, urinanalysis, the canine dementia scale (CADES) questionnaire, and two clinical cognitive tests [food searching test (FST) and problem solving test (PST)]. After these thorough examinations, the decision was made whether the dogs were included in the study. Dogs with systemic illnesses that could interfere with their cognitive function were excluded from the study.
Only dogs aged 10 years or older were included in the study. […] Dogs were not treated with any other medications for cognitive impairment. However, dogs that were included in the control group were allowed to be feed with the commercial therapeutic diet for cognitive decline, if they were on it at least 8 weeks before entering the study and if they maintained the same dietary protocol for the duration of the study. Dogs in the treatment group that were on a diet meant to treat cognitive decline were required to be off the diet for at least 30 days before enrollment and during the duration of the study.
as §1
Owners were observing their dog's health status daily during the duration of the study. In case of any serious or abnormal observations, they had to contact the participating veterinarian. Physical and excessive neurological examinations (behavior and consciousness, cranial nerves, gait and posture, postural reactions, spinal reflexes) were carried out by the veterinarian and included an assessment of all body systems. A full spectrum of neurobehavioral symptoms including apathy, anxiety, staring blankly, confusion or aimless walking, vocalization during the night, aggression, signs of compulsive and stereotyped behavior, etc. were obtained by questioning the pet owners. Dogs were monitored during examinations. Their responses to familiar and unfamiliar people and objects were observed. Exams were performed at the beginning of the study and every two weeks for the first two months if dogs were included in the treatment group. Thereafter, exams were performed every two months for the duration of the study (at least for 6 months). The control group was examined only every 2 months until the end of the study (for at least 6 months).
Changes in behavior of all dogs were evaluated by the same veterinarian. […]

[3] = test system: dogs with canine cognitive dysfunction; assay: Side effects during treatment of dogs with cognitive dysfunction
Description: as §1
Owners were observing their dog's health status daily during the duration of the study. In case of any serious or abnormal observations, they had to contact the participating veterinarian. […] Dogs were monitored during examinations. […]

[4] = treated group, after three months

## COCCN(CC1CCCN(Cc2ccccc2)C1)S(=O)(=O)c1ccc2ccccc2c1.Cl (racemic) [(±)-N-((1-Benzylpiperidin-3-Yl)Methyl)-N-(2-Methoxyethyl)Naphthalene-2-Sulfonamide Hydrochloride]
[1]; after six months
  Problem solving score (sum of FST and PST), group mean: 2.7+/−1.0
  Problem solving test scores (sum of FST and PST test), individual patient: 2 (4×) and 3 and 4 (2×)
[1]; after three months, baseline 5.3+/−1.4, untreated 7.6+/−1
  Problem solving score (sum of FST and PST), group mean: 3.1+/−1.1
[1]; after three months
  Problem solving test scores (sum of FST and PST test), individual patient: 4 (4×) and 2 (3×)
[2]; all treated dogs, six-month study
  Observed change in cognitive abilities: improved memory, cognitive functions, and learning abilities
[2]; after six months, untreated (2 remaining dogs) 80.5
  Average CADES score: 12.6+/−3.0
[2]; after three months, baseline 39+/−16.4, untreated 64.0+/−12.8
  Average CADES score: 17.1+/−10.6
[2]; treated group, after six months
  Cognitive state according to CADES: all dogs showed moderate cognitive impairment with low CADES score
[2]; [4]
  Dogs showing moderate cognitive impairment (two affected domains): 85.7%
  Dogs showing severe cognitive impairment (three affected domains): 14.3%
[2]; treated group, six-month study, 5 of 7 untreated dogs euthanized
  Survival: all dogs included stayed alive throughout the study
[3]; dogs with moderate cognitive impairment, 6 months of treatment
  Side effects: without any noticeable side effects
[3]; dogs with severe cognitive impairment (3 dogs), treatment stopped
  Side effects: signs of gastrointestinal problems with vomiting and diarrhea
